{"source": "ChEMBL document CHEMBL3045199", "about": "“Synthesis of some (E)-6-[2-(furan-2-yl)ethenyl]-1,2,4-triazin-5-ones and their biological evaluation as antitumor agents” (2013)", "format_in_all_cases": "functional", "key": {"[1]": {"test_system": "T47D", "assay": "Cytotoxicity against Homo sapiens (human) T47D cells after 48 hr by SRB assay", "details": "read-out: pGI50 (converted)"}, "[2]": {"test_system": "MCF7", "assay": "Cytotoxicity against Homo sapiens (human) MCF7 cells after 48 hr by SRB assay", "details": "MCF7, 48 h, read-out: pGI50 (converted)"}, "[3]": {"test_system": "UO-31", "assay": "Cytotoxicity against Homo sapiens (human) UO31 cells after 48 hr by SRB assay", "details": "UO-31, 48 h, read-out: pGI50 (converted)"}, "[4]": {"test_system": "SN12C", "assay": "Cytotoxicity against Homo sapiens (human) SN12C cells after 48 hr by SRB assay", "details": "read-out: pGI50 (converted)"}, "[5]": {"test_system": "CAKI-1", "assay": "Cytotoxicity against Homo sapiens (human) Caki1 cells after 48 hr by SRB assay", "details": "CAKI-1, 48 h, read-out: pGI50 (converted)"}, "[6]": {"test_system": "786-0", "assay": "Cytotoxicity against Homo sapiens (human) 786-0 cells after 48 hr by SRB assay", "details": "786-0, 48 h, read-out: pGI50 (converted)"}, "[7]": {"test_system": "EKVX", "assay": "Cytotoxicity against Homo sapiens (human) EKVX cells after 48 hr by SRB assay", "details": "read-out: pGI50 (converted)"}, "[8]": {"test_system": "RPMI-8226", "assay": "Cytotoxicity against Homo sapiens (human) RPMI8226 cells after 48 hr by SRB assay", "details": "RPMI-8226, 48 h, read-out: pGI50 (converted)"}, "[9]": {"test_system": "OVCAR-8", "assay": "Cytotoxicity against Homo sapiens (human) OVCAR8 cells after 48 hr by SRB assay", "details": "OVCAR-8, 48 h, read-out: pGI50 (converted)"}, "[10]": {"test_system": "SK-MEL-28", "assay": "Cytotoxicity against Homo sapiens (human) SK-MEL-28 cells after 48 hr by SRB assay", "details": "SK-MEL-28, 48 h, read-out: pGI50 (converted)"}, "[11]": {"test_system": "Malme-3M", "assay": "Cytotoxicity against Homo sapiens (human) MALME-3M cells after 48 hr by SRB assay", "details": "read-out: pGI50 (converted)"}, "[12]": {"test_system": "M14", "assay": "Cytotoxicity against Homo sapiens (human) M14 cells after 48 hr by SRB assay", "details": "M14, 48 h, read-out: pGI50 (converted)"}, "[13]": {"test_system": "U-251", "assay": "Cytotoxicity against Homo sapiens (human) U251 cells after 48 hr by SRB assay", "details": "U-251, 48 h, read-out: pGI50 (converted)"}, "[14]": {"test_system": "LOX IMVI", "assay": "Cytotoxicity against Homo sapiens (human) LOXIMVI cells after 48 hr by SRB assay", "details": "read-out: pGI50 (converted)"}, "[15]": {"test_system": "SNB-19", "assay": "Cytotoxicity against Homo sapiens (human) SNB19 cells after 48 hr by SRB assay", "details": "SNB-19, 48 h, read-out: pGI50 (converted)"}, "[16]": {"test_system": "SNB-75", "assay": "Cytotoxicity against Homo sapiens (human) SNB75 cells after 48 hr by SRB assay", "details": "SNB-75, 48 h, read-out: pGI50 (converted)"}, "[17]": {"test_system": "SW-620", "assay": "Cytotoxicity against Homo sapiens (human) SW620 cells after 48 hr by SRB assay", "details": "SW-620, 48 h, read-out: pGI50 (converted)"}, "[18]": {"test_system": "SF-268", "assay": "Cytotoxicity against Homo sapiens (human) SF268 cells after 48 hr by SRB assay", "details": "SF-268, 48 h, read-out: pGI50 (converted)"}, "[19]": {"test_system": "HT-29", "assay": "Cytotoxicity against Homo sapiens (human) HT-29 cells after 48 hr by SRB assay", "details": "HT-29, 48 h, read-out: pGI50 (converted)"}, "[20]": {"test_system": "COLO 205", "assay": "Cytotoxicity against Homo sapiens (human) COLO205 cells after 48 hr by SRB assay", "details": "COLO 205, 48 h, read-out: pGI50 (converted)"}, "[21]": {"test_system": "NCI-H460", "assay": "Cytotoxicity against Homo sapiens (human) NCI-H460 cells after 48 hr by SRB assay", "details": "NCI-H460, 48 h, read-out: pGI50 (converted)"}, "[22]": {"test_system": "NCI-H522", "assay": "Cytotoxicity against Homo sapiens (human) NCI-H522 cells after 48 hr by SRB assay", "details": "NCI-H522, 48 h, read-out: pGI50 (converted)"}}}
{"compound": "O=c1[nH]cc(F)c(=O)[nH]1", "note": "[FLUOROURACIL]", "values": [{"measurement": "GI50", "setting": "[1]", "value": 79.4, "unit": "µM"}, {"measurement": "GI50", "setting": "[2]", "value": 1.58, "unit": "µM"}, {"measurement": "GI50", "setting": "[3]", "value": 5.01, "unit": "µM"}, {"measurement": "GI50", "setting": "[4]", "value": 25.1, "unit": "µM"}, {"measurement": "GI50", "setting": "[5]", "value": 3.98, "unit": "µM"}, {"measurement": "GI50", "setting": "[6]", "value": 12.6, "unit": "µM"}, {"measurement": "GI50", "setting": "[7]", "value": 316, "unit": "µM"}, {"measurement": "GI50", "setting": "[8]", "value": 5.01, "unit": "µM"}, {"measurement": "GI50", "setting": "[9]", "value": 20, "unit": "µM"}, {"measurement": "GI50", "setting": "[10]", "value": 50.1, "unit": "µM"}, {"measurement": "GI50", "setting": "[11]", "value": 20, "unit": "µM"}, {"measurement": "GI50", "setting": "[12]", "value": 50.1, "unit": "µM"}, {"measurement": "GI50", "setting": "[13]", "value": 39.8, "unit": "µM"}, {"measurement": "GI50", "setting": "[14]", "value": 6.31, "unit": "µM"}, {"measurement": "GI50", "setting": "[15]", "value": 126, "unit": "µM"}, {"measurement": "GI50", "setting": "[16]", "value": 200, "unit": "µM"}, {"measurement": "GI50", "setting": "[17]", "value": 25.1, "unit": "µM"}, {"measurement": "GI50", "setting": "[18]", "value": 50.1, "unit": "µM"}, {"measurement": "GI50", "setting": "[19]", "value": 6.31, "unit": "µM"}, {"measurement": "GI50", "setting": "[20]", "value": 6.31, "unit": "µM"}, {"measurement": "GI50", "setting": "[21]", "value": 1, "unit": "µM"}, {"measurement": "GI50", "setting": "[22]", "value": 39.8, "unit": "µM"}]}
